Assay results as given in PMC9481557, “Enzymatic synthesis of benzylisoquinoline alkaloids using a parallel cascade strategy and tyrosinase variants” (Nature Communications, 2022).

Experiments:
EfTyrDC = biological target: T1, EfTyrDC (Enterococcus faecalis, UniProt Q838D6); experiment: HPLC conversion; assay type: biochemical; settings: PLP, HEPES pH 7.5, 37 °C, 6 h; coupled with CvTAm
T1 construct: gene tdc; recombinant in E. coli BL21(DE3)

CvTAm = biological target: T2, CvTAm (Chromobacterium violaceum, UniProt Q7NWG4); experiment: HPLC conversion; assay type: biochemical; settings: amine donor; pyruvate acceptor, PLP, HEPES pH 7.5, 37 °C, 6 h
T2 construct: gene CV_2025; recombinant in E. coli BL21(DE3)
T2 sequence (Q7NWG4 entry or part of it): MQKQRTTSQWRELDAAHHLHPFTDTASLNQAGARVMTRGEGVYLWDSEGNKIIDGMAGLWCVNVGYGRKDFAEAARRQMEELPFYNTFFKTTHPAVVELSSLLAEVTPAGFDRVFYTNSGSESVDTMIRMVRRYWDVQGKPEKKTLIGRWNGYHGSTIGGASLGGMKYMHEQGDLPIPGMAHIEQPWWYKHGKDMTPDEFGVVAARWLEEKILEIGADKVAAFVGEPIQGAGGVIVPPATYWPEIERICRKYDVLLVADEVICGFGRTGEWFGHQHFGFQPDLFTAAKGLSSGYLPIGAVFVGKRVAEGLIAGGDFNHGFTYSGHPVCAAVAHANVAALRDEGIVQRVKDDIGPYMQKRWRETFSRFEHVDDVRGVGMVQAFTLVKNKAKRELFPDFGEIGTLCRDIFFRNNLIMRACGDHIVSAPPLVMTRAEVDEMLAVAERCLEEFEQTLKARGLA

NCCc1ccc(O)cc1 = experiment: cells, lysate or membranes; assay type: cell-based, Candidatus Nitrosopumilus salarius; settings: apparent constant; N201S variant; copper enzyme; assay details in supplement

T1 sequence (Q838D6 whole entry): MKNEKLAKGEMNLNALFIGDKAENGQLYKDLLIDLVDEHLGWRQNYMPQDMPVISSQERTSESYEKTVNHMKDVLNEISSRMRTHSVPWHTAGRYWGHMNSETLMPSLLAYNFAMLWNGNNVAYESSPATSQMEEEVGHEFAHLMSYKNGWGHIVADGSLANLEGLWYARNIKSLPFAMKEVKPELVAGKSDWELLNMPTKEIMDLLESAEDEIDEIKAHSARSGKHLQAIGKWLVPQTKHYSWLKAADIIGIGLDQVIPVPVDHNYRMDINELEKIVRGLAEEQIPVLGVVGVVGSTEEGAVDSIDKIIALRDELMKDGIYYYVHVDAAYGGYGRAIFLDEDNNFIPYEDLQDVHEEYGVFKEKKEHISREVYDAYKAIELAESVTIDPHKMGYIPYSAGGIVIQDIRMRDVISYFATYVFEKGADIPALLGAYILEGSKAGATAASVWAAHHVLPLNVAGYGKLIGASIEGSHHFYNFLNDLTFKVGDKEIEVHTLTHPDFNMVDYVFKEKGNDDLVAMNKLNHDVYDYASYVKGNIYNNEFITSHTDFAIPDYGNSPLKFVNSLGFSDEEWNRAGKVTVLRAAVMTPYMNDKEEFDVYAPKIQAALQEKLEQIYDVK

**Q.** How did the HPLC conversion (EfTyrDC) turn out when `N[C@@H](Cc1cccc(O)c1)C(=O)O` [compound 9, meta-L-tyrosine] was run?
**A.** All of the selected substrates were readily accepted by EfTyrDC and CvTAm

**Q.** Which HPLC conversion (CvTAm) does the source give for `NCCCc1ccccc1` [compound 14, 3-phenyl-1-propylamine] here?
**A.** All of the selected substrates were readily accepted by EfTyrDC and CvTAm

**Q.** Which Km (NCCc1ccc(O)cc1) does the source give for “CnTYR (Candidatus Nitrosopumilus salarius BD31; N201S)” here?
**A.** 1780 µM

**Q.** And the kcat (NCCc1ccc(O)cc1)?
**A.** 197.5 s⁻¹

**Q.** For `N[C@@H](Cc1ccc(O)c(Cl)c1)C(=O)O` [compound 12, 3-Cl-L-tyrosine], which HPLC conversion (EfTyrDC) is on record?
**A.** All of the selected substrates were readily accepted by EfTyrDC and CvTAm
